Key:
insulin receptor = insulin receptor (Homo sapiens, UniProt P06213); test: insulin radioreceptor assay; assay type: binding
Description: (§1) Moreover, the product can be assayed for purity and activity by recognized methods such as polyacrylamide gel electrophoresis, amino acid analysis, insulin radioreceptorassay, insulin radioimmunoassay, high performance liquid chromatography (HPLC), ultraviolet spectrum, dansylation, rabbit blood glucose assay, and the like.
After acidification to pH 3.15 with glacial acetic acid, a portion of this solution was gel filtered on a 1.5×90 cm. column of Sephadex G-50 (Superfine) equilibrated and eluted with 1 M acetic acid at 4°-8° C. The [N-formyl-Gly^1 A] human insulin peak (elution volume 87-95 ml.) was pooled, aliquotted and lyophilized. This protein was judged to be quite clean by HPLC and amino acid analysis. The bioactivity of [N-formyl-Gly^1 -A] human insulin evaluated by radioreceptor assay was 17% relative to a human insulin standard.

rabbit blood glucose = test: USP rabbit assay (rabbit blood glucose assay); assay type: in vivo; conditions: 144 rabbits; zinc insulin crystals redissolved in 0.01 N HCl
Description: as §1
The resulting human insulin preparation was judged to be quite pure by polyacrylamide gel electrophoresis (a single band), amino acid analysis, insulin radioreceptorassay, insulin radioimmunoassay, HPLC, dansylation and UV spectrum. […] (anhydrous).

insulin receptor, sequence (P06213 28-758 limits assumed): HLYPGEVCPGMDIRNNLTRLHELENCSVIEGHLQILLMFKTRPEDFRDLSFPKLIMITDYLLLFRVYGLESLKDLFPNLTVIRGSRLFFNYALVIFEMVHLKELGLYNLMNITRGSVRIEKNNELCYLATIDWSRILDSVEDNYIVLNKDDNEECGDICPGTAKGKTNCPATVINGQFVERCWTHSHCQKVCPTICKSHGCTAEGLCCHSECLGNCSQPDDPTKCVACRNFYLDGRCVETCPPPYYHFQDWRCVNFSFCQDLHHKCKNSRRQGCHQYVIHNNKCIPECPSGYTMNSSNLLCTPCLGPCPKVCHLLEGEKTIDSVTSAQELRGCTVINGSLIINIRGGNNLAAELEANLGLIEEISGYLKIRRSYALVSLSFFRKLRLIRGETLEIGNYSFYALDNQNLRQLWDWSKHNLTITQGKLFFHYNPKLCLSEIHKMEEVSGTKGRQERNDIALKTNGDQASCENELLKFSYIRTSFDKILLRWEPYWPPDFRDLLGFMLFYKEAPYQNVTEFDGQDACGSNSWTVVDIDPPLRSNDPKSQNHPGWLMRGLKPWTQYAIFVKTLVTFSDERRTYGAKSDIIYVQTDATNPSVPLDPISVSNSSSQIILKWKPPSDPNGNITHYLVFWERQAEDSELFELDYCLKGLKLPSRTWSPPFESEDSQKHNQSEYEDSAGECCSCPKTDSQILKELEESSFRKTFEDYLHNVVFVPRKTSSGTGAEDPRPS
insulin receptor, sequence (P06213 763-1382 partner limits assumed): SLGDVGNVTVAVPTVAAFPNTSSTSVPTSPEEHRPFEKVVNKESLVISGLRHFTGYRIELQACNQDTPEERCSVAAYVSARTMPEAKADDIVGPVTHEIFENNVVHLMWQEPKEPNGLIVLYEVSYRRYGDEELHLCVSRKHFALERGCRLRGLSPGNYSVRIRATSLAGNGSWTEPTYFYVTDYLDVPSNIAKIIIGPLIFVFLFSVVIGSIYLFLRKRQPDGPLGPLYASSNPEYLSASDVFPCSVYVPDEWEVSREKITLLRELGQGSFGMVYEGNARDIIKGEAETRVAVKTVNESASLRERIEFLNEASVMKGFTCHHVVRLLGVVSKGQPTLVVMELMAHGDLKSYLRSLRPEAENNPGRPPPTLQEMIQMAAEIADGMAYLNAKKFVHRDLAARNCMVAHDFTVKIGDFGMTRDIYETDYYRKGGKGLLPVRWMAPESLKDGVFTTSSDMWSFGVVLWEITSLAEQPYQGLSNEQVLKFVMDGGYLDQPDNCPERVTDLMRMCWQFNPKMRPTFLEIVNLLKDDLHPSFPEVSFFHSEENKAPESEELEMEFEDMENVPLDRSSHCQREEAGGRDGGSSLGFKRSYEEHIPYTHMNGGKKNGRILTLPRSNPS

| bioactivity evaluated by radioreceptor assay relative to a human insulin standard (insulin receptor) [%] | Substance | potency, USP rabbit assay (rabbit blood glucose) |
| --- | --- | --- |
| 17 | [N-formyl-Gly^1 -A] human insulin |  |
|  | human insulin | 26.3±1.8 units per mg. (anhydrous) |

Source: patent publication US4421685A, “Process for producing an insulin” (Eli Lilly and Company, priority 1981, dated 1983)
